Entries after “also recorded” stand apart in the source; their conditions may differ.
What was measured:
C2C12 myoblasts [1] = assay: Myogenic differentiation (myotube area) of C2C12 myoblasts after PEMF; assay type: cell-based, mouse; details: 100 μM co-administered; 1 mT PEMFs, early application
Procedure: Series of 4 images with 20× magnification were taken for each sample and myotube area was calculated by manually delimiting the myotube periphery using ImageJ (Cell Counter plugin).
(§1) Each pulse train consists of 20×150 μsec asymmetric pulses separated by 150 μsec interpulse intervals to the 0 flux level. The magnetic flux density rose to maximal level within 20-50 μsec and dropped equally as rapidly (50 T/s).

C2C12 myoblasts [2] = assay: Cell cycle (G2/M accumulation) of myoblasts in simulated microgravity; assay type: cell-based, mouse; details: 5 mM added transiently 10 minutes before simulated microgravity; at 2 hours
Procedure: The RPM was kept in a temperature-controlled room at 37° C. The calculated gravity exerted upon cells on the RPM was below 0.02 g. Cells were seeded 15 hours prior to the start of the RPM experiment at 8000/cm^2. At 15 hours some samples were incubated with 5 mM CaCl2 for 10 min, washed twice with PBS, given aged matched GM and placed onto the RPM. Other samples were exposed to PEMF at 37° C. (0.5 or 1.5 mT) for 10 min before being placed onto the RPM. Samples were fixed after 2 hours for subsequent cell cycle analysis as described below.
Following RPM treatment (above) cells were fixed and stored at −20° C. in 70% ice-cold ethanol for 12 to 18 hours prior to staining. Cell cycle was analyzed based on DNA content using a propidium iodide (PI)/RNase staining kit (BD Biosciences, cat#550825) by FACS.

TRPC1 channel = target: T1, TRPC1 channel (Homo sapiens, UniProt P48995); assay: Oxygen consumption rate (OCR) of myoblasts in response to PEMF; assay type: cell-based; details: oxygen consumption measured 6 hours after PEMF
T1 construct: PEMF-induced TRPC1-mediated calcium entry in myoblasts increases oxygen consumption rate (OCR); endogenous in cells
Procedure: Muscle gene expression enhanced by PEMF treatment as indicated. […] The principal functions of these genes are shown in the parentheses. […] A) Human myoblast measurement showing increased OCR six hours following exposure to 1.5 mT PEMFs for 10 minutes. B) The production of reactive oxygen species (ROS) also increases 15 minutes after PEMF (1.5 mT) exposure.
C) Oxygen consumption rate (OCR) in response to PEMF stimulation obeys the same EMF efficacy window as proliferation. […] Cells were exposed to PEMFs and oxygen consumption measured 6 hours later. These cellular responses obey a mitohormeitic EMF efficacy window particular for skeletal muscle.

C2C12 myoblasts [3] = assay: Intracellular calcium in C2C12 myoblasts (Calcium Green-1; flow cytometry or plate reading); assay type: cell-based, mouse
Procedure: In preparation for measurement of changes in intracellular calcium in response to PEMF treatment with flow cytometry myoblasts (50,000 cells) were spun down (1000 RCF; 5 minutes), resuspended in 2 ml of PBS and next loaded with 20 μl Calcium Green-1, AM (50 μg in 100 μl DMSO; Molecular Probes) for 30 minutes at 37 C in the dark. Following incubation, cells were washed once, resuspended into 500 μl PBS and placed on ice before registry in a BD FACSAria Flow Cytometer (FL1 channel). For plate reading assessment of intracellular calcium, myoblasts were plated into 96 black well plates (Brand 96 Flat Bottom Black) at 10,000 cells/wells. Cultures were washed once with PBS and supplied with 250 μl growth media to which Calcium Green-1 AM (50 μg in 100 μl DMSO; Molecular Probes) had been added at a dilution of 1:1000. Myoblasts cultures were then incubated in a standard tissue culture incubator for 5 minutes, followed by PEMF exposure for 10 minutes and then replaced in the incubator for an additional 15 minutes at 37° C. before washing with 37° C. PBS. Calcium measurement was conducted using a Tecan Infinite 200Pro plate reader with excitation wavelength and emission wavelengths set to 500 nm and 535 nm, respectively, and bandwidth excitation and emission wavelengths set to 9 and 20 nm, respectively.
as §1

C2C12 myoblasts [4] = assay: PEMF-induced proliferation of C2C12 myoblasts; details: 100 μM; 1 mT PEMFs within 18 hours after plating
[5] = extracellular magnesium raised to 10 mM, plate reading

T1 sequence (P48995 whole entry): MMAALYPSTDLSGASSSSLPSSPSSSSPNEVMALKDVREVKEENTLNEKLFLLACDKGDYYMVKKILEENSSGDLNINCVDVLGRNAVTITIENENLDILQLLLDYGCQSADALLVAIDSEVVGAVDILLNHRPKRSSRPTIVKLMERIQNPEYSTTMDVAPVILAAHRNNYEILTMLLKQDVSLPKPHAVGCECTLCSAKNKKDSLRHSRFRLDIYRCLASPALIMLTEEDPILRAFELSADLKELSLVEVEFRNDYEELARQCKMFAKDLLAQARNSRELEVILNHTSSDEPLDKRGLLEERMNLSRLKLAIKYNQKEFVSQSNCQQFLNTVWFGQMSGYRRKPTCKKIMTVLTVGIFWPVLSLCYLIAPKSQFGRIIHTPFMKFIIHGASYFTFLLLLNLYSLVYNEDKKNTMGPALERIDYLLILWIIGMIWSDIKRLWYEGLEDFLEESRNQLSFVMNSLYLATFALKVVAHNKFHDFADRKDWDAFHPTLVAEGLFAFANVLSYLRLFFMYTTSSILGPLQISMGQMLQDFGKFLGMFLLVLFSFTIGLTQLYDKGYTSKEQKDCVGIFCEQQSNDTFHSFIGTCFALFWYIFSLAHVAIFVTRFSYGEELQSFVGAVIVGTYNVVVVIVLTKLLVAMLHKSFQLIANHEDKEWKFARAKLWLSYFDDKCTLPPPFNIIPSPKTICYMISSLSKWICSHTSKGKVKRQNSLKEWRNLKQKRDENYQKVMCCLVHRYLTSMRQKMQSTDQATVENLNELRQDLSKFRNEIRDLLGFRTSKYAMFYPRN

**Q.** Which “PEMF enhancement of myotube size (mean myotube area)” value (C2C12 myoblasts [1]) does the source give for neomycin here?
**A.** The value was “prevented”.

**Q.** Which “Reversal of G2/M accumulation from simulated microgravity” value (C2C12 myoblasts [2]) does the source give for `[Ca+2].[Cl-].[Cl-]` [CaCl2] here?
**A.** Its value is “mimic the effects of 1.5 mT PEMFs”.

**Q.** For `COc1ccc(CCCOC(Cn2ccnc2)c2ccc(OC)cc2)cc1` (centres unmarked) [SKF-96365], which “OCR in response to PEMF exposure” value (TRPC1 channel) is on record?
**A.** Its value is “blocks OCR in response to PEMF exposure”.

**Q.** How did the “capsaicin calcium response versus response to PEMFs” value (C2C12 myoblasts [3]; 1 mT PEMFs) turn out when `COc1cc(CNC(=O)CCCC/C=C/C(C)C)ccc1O` [capsaicin] was run?
**A.** Its value is “inversely related to response to 1 mT PEMFs”.

**Q.** Which “[Ca^2+]i increase relative to unexposed cells” value (C2C12 myoblasts [3]; 1 μM, 30 min, compared with 1 mT PEMFs for 10 min, listed as lonomycin) does the source give for `C[C@H](CCC(=O)O)C[C@H](C)C[C@H](C)C(=O)/C=C(\O)[C@H](C)C[C@H](C)C/C=C/[C@@H](C)[C@@H](O)[C@@H](C)[C@@H](O)C[C@@H]1CC[C@@](C)([C@H]2CC[C@@](C)([C@@H](C)O)O2)O1` [ionomycin] here?
**A.** Its value is “comparable magnitude”.

**Q.** And the “[Ca^2+]i” value (C2C12 myoblasts [3]; 1 μM, five-hour application)?
**A.** The value was “produced lethal [Ca^2+]i”.

**Q.** With `NCCOB(c1ccccc1)c1ccccc1` [2-APB, 2-Aminoethyl diphenylborinate] as the compound, how does the PEMF-induced proliferation (C2C12 myoblasts [4]) read?
**A.** Its PEMF-induced proliferation is “abolished the ability of PEMFs to enhance proliferation”.

**Q.** And the “[Ca^2+]i / cytosolic calcium level” value (C2C12 myoblasts [3]; 10 μM, unstimulated (0 mT) and stimulated (1 mT) myoblasts)?
**A.** The value was “reduced the cytosolic calcium levels to a common baseline; also recorded: reduced [Ca^2+]i to a common baseline”.

**Q.** And the PEMF-provoked calcium increments (C2C12 myoblasts [3]; antagonizing TRPM7/C1 channels, 1 mT PEMFs)?
**A.** The PEMF-provoked calcium increments was “precluded the ability of PEMFs to provoke calcium increments”.

**Q.** With `[Mg+2]` [magnesium] as the compound, how does the “PEMF-induced rise of intracellular calcium” value (C2C12 myoblasts [3]; [5]) read?
**A.** Its value is “did not prevent PEMFs from raising intracellular calcium; also recorded: does not prevent PEMFs from raising intracellular calcium”.

**Q.** And the “basal and PEMF-induced calcium levels” value (C2C12 myoblasts [3]; [5])?
**A.** Its value is “augmented both basal and PEMF-induced calcium levels”.
